The source of these data is patent publication US20230226047A1, “COMBINATION THERAPY FOR TREATMENT OF CANCERS” (Health Research, Inc., priority 2019, published 2023).

Assay [1] relates to TRAMP C2 cells grafted in NSG mice. The assay can be described thus: TRAMP C2 subcutaneous graft in immunocompromised NSG mice. It counts as in vivo, mouse. The settings on record: 10 mg/kg, four weeks, p=0.1461, permutation test, FIG. 8B. As to the method:
(§1) Immunotherapy in prostate cancer (PCa) lags behind the progresses obtained in other cancer types partially because of its limited immune infiltration. While a few studies reported increased homing of immune cells in response to androgen deprivation therapy (ADT), the mechanism by which this occurs is still poorly understood. Using TCGA PCa RNASeq data patients were divided into top/bottom 30% based on the expression of WHSC1 and DFS was calculated for both groups. Publicly available ChIPSeq data were obtained from Cistrome and integrated with the available RNASeq data. RNASeq, ATACSeq and EPIC Infinium MethylArrays were analyzed using R Bioconductor packages comparing C42 cells with or without stable knockdown on WHSC1. Flow cytometry was used to measure MHC levels, MHC-bound OVA and tumor infiltration. C57B6 and NSG mice were subcutaneously grafted with TRAMP C2 cells and treated with MCTP39 (10 mg/kg); tumor size was monitored over time and curves compared using permutation analyses. All analyses use a significance threshold of 0.05.
Mice and in vivo experiments: Male C57B/6J mice (6-8 weeks of age) and NSG mice (10-12 weeks of age) were obtained from the Roswell Park's Center For Immunotherapy breeding colonies. […] Tumor volume was monitored weekly with an electronic caliper and calculated as V=(W^2×L)/2, where Vis tumor volume, W is tumor width and L is tumor length. […]

Assay [2] relates to TRAMP C2 cells grafted in C57B/6 mice. As to the kind of experiment: TRAMP C2 subcutaneous graft in immunocompetent C57B/6 mice. It counts as in vivo, mouse. On the procedure: as §1
Mice and in vivo experiments: Male C57B/6J mice (6-8 weeks of age) and NSG mice (10-12 weeks of age) were obtained from the Roswell Park's Center For Immunotherapy breeding colonies. All in vivo experiments were made following institutional and IACUC regulations. In vivo experiments were not blinded. C2 cells (1×10^6 cells/100 μl) were injected subcutaneously into the right flank of male C57BL/6J mice (n=6/group) or NSG mice (n=5/group) using a 27 G needle. Sample size was chosen based on pilot studies and chosen to include the potential loss of mice prior treatment. Tumor volume was monitored weekly with an electronic caliper and calculated as V=(W^2×L)/2, where Vis tumor volume, W is tumor width and L is tumor length. When tumors reached 100 mm^3, mice were randomized prior treatment with either MCTP-39 (10 mg/kg 5×/week/4 weeks) or vehicle control. Mice were euthanized either when tumors reached […] in any dimension, as per Institutional IACUC regulations, when mice show signs of advanced disease or after 4 weeks of treatment. Tumors were harvested and weighted, single cells suspension was prepared using the Tumor dissociation kit (Miltenyi Biotech) as per manufacturing instructions prior flow cytometry analysis.
Flow cytometry and antibodies: Single cell suspension from tumors was stained the antibodies listed in Table S3 (FIG. 14) for 20 min at 4° C. After staining, cells were washed and fixed with fixation buffer for 15 min at 4° C. followed by washing 2× with FACS buffer. Cells were resuspended in 200 μl of FACS buffer before acquiring data on BDLSR IIA flow cytometer. Data were analyzed using FCS express 7 Research Edition.
Statistical methods: Survival analysis was performed dividing patients based on the upper/lower 25% of the expression levels of WHSC1, significance, HR and confidence intervals were calculated using cox proportional hazard model available in the R package survival. […] Significance for the AUC analysis was calculated by simulating 10,000 AUCs using randomly selected genes in the RNASeq dataset. The empirical p value was calculated by dividing the number of expected/simulated AUCs higher than our observed value by 10,000 (number of simulations). Significance when comparing two groups was calculated via two-tailed Student's t.test at a significance threshold of 0.05. […]

For assay [3], the system named is OVA-overexpressing TRAMP C2 cells. As to the kind of experiment: Flow cytometry of antigen-bound MHC (OVA-bound H2Kb). The settings on record: 48 hours, FIG. 7C-D. It counts as cell-based, murine. From the text:
OVA overexpression: Soluble ovalbumin (OVA) gene, which was amplified from pCI-neo-sOVA (Addgene plasmid 25098), and monomeric enhanced green fluorescent protein (mEGFP) gene, which was amplified from mEGFP-N1 (Addgene plasmid 54767), were genetically fused via P2A translational skipping sequence and cloned in the Sleeping Beauty transposon plasmid with the human elongation factor 1α promoter. This plasmid, pT2-EF-OVA-mEGFP, was electroporated together with the Sleeping Beauty Transposase plasmid, pCMV(CAT)T7-SB100 (a gift from Zsuzsanna Izsvak; Addgene plasmid #34879), into TRAMP-C2 by Nucleofector 4D instrument. The electroporated cells were kept in maintenance medium (DMEM supplemented with 10% FBS, 0.005 mg/ml bovine insulin, 1 nM DHT and cell sorted based on mGFP expression using FACS Aria I cell sorter. The expression of OVA on sorted cells were confirmed by western blotting using rabbit polyclonal OVA antibody (ab186717) at 1:4000 dilution and flow cytometry using PE anti-mouse H-2K^b bound to SIINFEKL (BioLegend) before incubating with or without MCTP-39 for 48 hours. The expression of OVA was analyzed after 48 hours by flow cytometry using BDLSRIIA cytometer and data was analyzed by FCS express 7 Research Edition.
For orientation: A flow cytometer gives signals particle by particle.

A further assay deals with TRAMP C2 cells. As to the kind of experiment: Flow cytometry of MHC expression after MCTP-39 and IFNg treatment, murine TRAMP C2 cells. It counts as cell-based. As to conditions: combined treatment with MCTP-39 and IFNg, FIG. 7B. As to the method:
(§2) Cell proliferation: Knock down of WHSC1 in C4-2 and TRAMP C-2 cells is discussed in previous sections. Cells were counted at 48, 96 and 144 hours. For pharmacological inhibition, cells either C4-2 or TRAMP C2 were seeded overnight at 4×10^3 cells per 100 μl media in a 96 well plate, the following day cells were treated with vehicle control or different concentrations of MCTP-39 (0-10 μM) for 48 hours. After 48 hours, C4-2 or TRAMP C-2 cells were either counted or used for staining with MHCI/II antibodies. Briefly cells were detached using trypsin and washed with FACS buffer for 5 minutes at 300 g. The pellet was resuspended in FACS buffer and stained with MHC-I/II antibodies for 20 minutes at 4 C. After incubation, cells were washed with FACS buffer 2× and resuspended in 200 μl of FACS buffer before acquiring the data on a flow cytometer.

For another assay, the system named is C42 cells. As to the kind of experiment: Flow cytometry of MHC expression after MCTP-39 and IFNg treatment, human C42 cells. As to conditions: combined treatment with MCTP-39 and IFNg, FIG. 7A. It counts as cell-based. On the procedure:
as §2

Setting [4] is: C57B/6 mice, tumors at endpoint, flow cytometry, FIG. 8C.

Entries after “also recorded” stand apart in the source; their conditions may differ.

With `NNc1nc2ccccc2[nH]c1=S` [MCTP39], in assay [1], the Tumor growth result was “limited and non-significant effect; also recorded: Not Significant; also recorded: not observed”. The Tumor growth entry in assay [2] (C57B/6 mice, 10 mg/kg IP for four weeks, p=0.0023, permutation test, FIG. 8A, 10 mg/kg) is reported as “significantly reduced”. The Tumor weight result in assay [2] (C57B/6 mice, at endpoint, FIG. 8C) is given as “reduced”. Moreover, in assay [2] (setting [4]), the “CD8+ T cells infiltration” value was “increased” and the “H2Kb (MHC) expression on the tumor” value was “increased”. Moreover, in assay [2] (preliminary in vivo data), the “intratumoral CD8+PD1+ T cells” value was “may increase”. Also, in assay [3], the “OVA-bound H2Kb fraction” value was “increased”. For the same compound, the “upregulating murine H2Kb I-A/I-E” value in the assay with TRAMP C2 cells is on record as “additive effect”. For the same compound, the “upregulating HLA-B7, HLA-F, HLA-E, HLA-DQ, HLA-DM” value with C42 cells is given as “additive effect”.
